Measured values published in patent US9938269B2, “Inhibitor compounds of phosphodiesterase type 10A” (ABBVIE INC., priority 2011, dated 2018).
Structures can show the parent of a compound that is named as a salt.

Columns and labels:
[1] = tested on: hyperactivity in rats induced by PCP; conditions: cited from earlier work
[2] = after systemic administration; cited from earlier work
[3] = tested on: catalepsy in rats; conditions: cited from earlier work
[4] = tested on: amphetamine-induced hyperactivity; conditions: rat, in vivo; cited from earlier work
[5] = molecular target: T1, PDE10A (human) (Homo sapiens, UniProt Q9Y233); assay: Measurement of PDE activity (HTRF cAMP kit), human PDE10A; assay type: biochemical; conditions: PDE enzymatic reaction, substrate 20 nM for PDE10, 60 minutes at 29 C
T1 construct: purchased BPS Bioscience
Outline: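 HTRF detection of cAMP left after hydrolysis, expressed as percent of uninhibited control to derive IC50. Reaction: serially diluted inhibitor mixed with recombinant enzyme, started with 20 nM cAMP, 60 min at 29 °C in Tris-HCl pH 7.5 buffer containing MgCl2 and BSA.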

[6] = Determination of the microsomal half-life, rat liver microsomes; conditions: rat, liver microsomes, pH 7.4
Experimental: (§1) The test substances were incubated in a concentration of 0.5 μM as follows:
(§2) 0.5 μM test substance are preincubated together with liver microsomes from different species (from rat, human or other species) (0.25 mg of microsomal protein/10 in 0.05 M potassium phosphate buffer of pH 7.4 in microtiter plates at 37° C. for 5 min. The reaction is started by adding NADPH (1 mg/mL). After 0, 5, 10, 15, 20 and 30 min., 50 μl aliquots are removed, and the reaction is immediately stopped and cooled with the same volume of acetonitrile. The samples are frozen until analyzed. The remaining concentration of undegraded test substance is determined by MSMS. The half-life (T½) is determined from the gradient of the signal of test substance/unit time plot, it being possible to calculate the half-life of the test substance, assuming first order kinetics, from the decrease in the concentration of the compound with time. The microsomal clearance (mCl) is calculated from mCl=ln 2/T½/(content of microsomal protein in mg/ml)×1000 [ml/min/mg]

[7] = Determination of the microsomal half-life, human liver microsomes; conditions: human, liver microsomes, pH 7.4
[8] = in vitro; conditions: rat, microsomes, pH 7.4
Experimental: as §1, §2

[9] = in vitro; conditions: human, microsomes, pH 7.4

T1 sequence (Q9Y233 whole entry): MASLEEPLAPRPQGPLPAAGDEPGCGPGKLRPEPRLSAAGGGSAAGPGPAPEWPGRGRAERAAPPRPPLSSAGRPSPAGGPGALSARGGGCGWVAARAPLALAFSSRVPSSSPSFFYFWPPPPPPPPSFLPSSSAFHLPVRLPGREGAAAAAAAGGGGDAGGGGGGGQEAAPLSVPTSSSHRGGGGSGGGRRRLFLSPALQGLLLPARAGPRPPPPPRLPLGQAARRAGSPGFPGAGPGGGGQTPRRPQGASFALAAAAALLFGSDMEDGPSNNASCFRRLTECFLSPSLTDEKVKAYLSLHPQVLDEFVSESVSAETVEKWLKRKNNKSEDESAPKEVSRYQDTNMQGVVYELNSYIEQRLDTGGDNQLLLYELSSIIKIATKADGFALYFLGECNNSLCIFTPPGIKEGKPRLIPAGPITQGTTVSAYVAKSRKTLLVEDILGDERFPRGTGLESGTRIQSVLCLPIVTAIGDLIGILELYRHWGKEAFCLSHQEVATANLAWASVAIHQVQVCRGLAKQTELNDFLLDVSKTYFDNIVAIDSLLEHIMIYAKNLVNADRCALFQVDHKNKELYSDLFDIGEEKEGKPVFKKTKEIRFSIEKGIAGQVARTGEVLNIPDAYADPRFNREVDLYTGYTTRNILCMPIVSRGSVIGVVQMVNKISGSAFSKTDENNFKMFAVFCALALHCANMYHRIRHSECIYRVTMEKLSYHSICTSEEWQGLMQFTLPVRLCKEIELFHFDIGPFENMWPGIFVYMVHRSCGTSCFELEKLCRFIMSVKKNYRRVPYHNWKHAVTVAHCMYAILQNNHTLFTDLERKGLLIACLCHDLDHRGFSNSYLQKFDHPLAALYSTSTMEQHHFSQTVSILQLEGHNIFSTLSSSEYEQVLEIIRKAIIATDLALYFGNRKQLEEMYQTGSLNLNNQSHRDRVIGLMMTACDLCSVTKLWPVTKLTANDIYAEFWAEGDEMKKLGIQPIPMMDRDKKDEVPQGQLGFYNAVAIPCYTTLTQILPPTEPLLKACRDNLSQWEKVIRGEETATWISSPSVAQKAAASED

Row | Structure (SMILES) | IC50 [5] | microsomal CLint at 0.5 μM [6] | microsomal CLint at 0.5 μM [7] | other results
1 | COc1ccc(Cc2nccc3cc(OC)c(OC)cc23)cc1OC [Papaverine, papaverine] |  |  |  | hyperactivity induced by PCP [1]: reduced hyperactivity; exposure half-life [2]: very short; catalepsy on its own ([3]; papaverine alone): did not cause catalepsy on its own; cataleptic effect of the D2 receptor antagonist haloperidol ([3]; together with haloperidol): potentiated the cataleptic effect; reduction of amphetamine-induced hyperactivity [4]: insignificant
2 | Cc1ncccc1-c1cccc2c1C(=O)N(CCc1cn3ccccc3n1)C2 [Example 240, 2-(2-Imidazo[1,2-a]pyridin-2-yl-ethyl)-7-(2-methyl-pyridin-3-yl)-2,3-dihydro-isoindol-1-one] | < 100 nM | 100 to 220 µL/min/mg | < 100 µL/min/mg | 
3 | O=C1c2c(cccc2N2CCOCC2)CN1CCc1cccc(-c2ncccn2)c1 [Example 120, 7-Morpholino-2-(3-(pyrimidin-2-yl)phenethyl)isoindolin-1-one] | 200 to 500 nM | 100 to 220 µL/min/mg | 100 to 220 µL/min/mg | 
4 | O=C1c2c(cccc2-c2ccc3[nH]c(=O)[nH]c3c2)CN1CCc1ccc2ccccc2n1 [Example 9, 5-[3-oxo-2-(2-quinolin-2-yl-ethyl)-2,3-dihydro-1H-isoindol-4-yl]-1,3-dihydro-benzoimidazol-2-one trifluoroacetate] | < 100 nM | 100 to 220 µL/min/mg | < 100 µL/min/mg | 
5 | O=C1c2c(cccc2N2C3CCC2CNC3)CN1CCc1ccc2ccccc2n1 [Example 103, 7-(3,8-Diaza-bicyclo[3.2.1]oct-8-yl)-2-(2-quinolin-2-yl-ethyl)-2,3-dihydro-isoindol-1-one] | 200 to 500 nM |  |  | microsomal CLint at 0.5 μM [8]: < 100 µL/min/mg; microsomal CLint at 0.5 μM [9]: < 100 µL/min/mg
6 | O=C1c2c(ccc(F)c2-c2ccncc2)CN1CCc1ccc2ccccc2n1 [Example 14, 6-Fluoro-7-pyridin-4-yl-2-(2-quinolin-2-yl-ethyl)-2,3-dihydro-isoindol-1-one] | < 100 nM | 100 to 220 µL/min/mg | 100 to 220 µL/min/mg | 

Now from value to compound, other results behind:

Row | IC50 [5] | microsomal CLint at 0.5 μM [6] | microsomal CLint at 0.5 μM [7] | Structure (SMILES) | other results
7 | 100 to 200 nM | 100 to 220 µL/min/mg | 100 to 220 µL/min/mg | O=C1c2c(cccc2N2CCOCC2)CN1CCc1ccc2sccc2n1 [Example 556, 7-Morpholino-2-(2-(thieno[3,2-b]pyridin-5-yl)ethyl)isoindolin-1-one] | 
8 | 100 to 200 nM | 100 to 220 µL/min/mg | < 100 µL/min/mg | O=C1c2cccc(-c3ccnnc3)c2CN1CCc1ccc2ccccc2n1 [Example 353, 4-Pyridazin-4-yl-2-(2-quinolin-2-yl-ethyl)-2,3-dihydro-isoindol-1-one] | 
9 | < 100 nM | < 100 µL/min/mg | < 100 µL/min/mg | O=C1c2c(-c3cc[nH]n3)ccnc2CN1CCc1nc2ccccc2s1 [compound 429, 6-[2-(1,3-Benzothiazol-2-yl)ethyl]-4-(1H-pyrazol-3-yl)-7H-pyrrolo[3,4-b]pyridin-5-one] | 
10 | 100 to 200 nM | > 220 µL/min/mg | < 100 µL/min/mg | Cc1cccc(CCN2Cc3nccc(N4CCOCC4)c3C2=O)n1 [compound 466, 6-[2-(6-Methyl-2-pyridyl)ethyl]-4-morpholino-7H-pyrrolo[3,4-b]pyridin-5-one] | 
